Assay results published in PMC12136037, “Type II kinase inhibitors that target Parkinson’s disease–associated LRRK2” (Science Advances, 2025).

Assays:
Experiment in all cases: DSF 100 kinase selectivity screen;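 further: compound tested at 20 µM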
Format in all cases: binding
[1] = molecular target: T1, ~100 representative kinases (Homo sapiens, UniProt O43293); details: Protein DAPK3; average of three replicates
T1 construct: Recombinant protein kinase domains with a concentration of 2 μM
Method in brief: (§1)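 Each kinase domain, at 2 μM, is mixed with 20 μM test compound and SYPRO Orange in Hepes (20 mM, pH 7.5) with 500 mM NaCl. Temperature is then raised at 3°C/min and fluorescence-monitored unfolding yields the melting temperature change, ΔTm in degrees Celsius.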

[2] = molecular target: T2, ~100 representative kinases (Homo sapiens, UniProt O95747); details: protein OSR1; average of three replicates
T2 construct: Recombinant protein kinase domains with a concentration of 2 μM
Method in brief: as §1

[3] = molecular target: T3, ~100 representative kinases (Homo sapiens, UniProt O96017); details: Protein CHEK2; average of three replicates
T3 construct: Recombinant protein kinase domains with a concentration of 2 μM
T3 sequence (O96017 whole entry, the tested form may be a part): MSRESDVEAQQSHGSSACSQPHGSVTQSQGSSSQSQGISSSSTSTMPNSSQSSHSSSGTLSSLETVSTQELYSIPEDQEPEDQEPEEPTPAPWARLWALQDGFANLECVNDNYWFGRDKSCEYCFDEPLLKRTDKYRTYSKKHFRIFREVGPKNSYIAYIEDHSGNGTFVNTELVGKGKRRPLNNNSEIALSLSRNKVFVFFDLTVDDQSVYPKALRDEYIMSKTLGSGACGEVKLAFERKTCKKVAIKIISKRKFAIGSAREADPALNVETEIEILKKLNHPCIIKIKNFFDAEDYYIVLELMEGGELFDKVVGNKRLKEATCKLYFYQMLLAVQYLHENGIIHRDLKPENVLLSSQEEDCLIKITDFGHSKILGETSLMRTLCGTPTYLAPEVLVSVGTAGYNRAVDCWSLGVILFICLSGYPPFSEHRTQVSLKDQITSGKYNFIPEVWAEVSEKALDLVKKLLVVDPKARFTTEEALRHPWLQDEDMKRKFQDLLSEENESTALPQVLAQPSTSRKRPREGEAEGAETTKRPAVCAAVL
Method in brief: as §1

[4] = molecular target: T4, ~100 representative kinases (Homo sapiens, UniProt P00519); details: Protein ABL1; average of three replicates
T4 construct: Recombinant protein kinase domains with a concentration of 2 μM
Method in brief: as §1

[5] = molecular target: T5, ~100 representative kinases (Homo sapiens, UniProt P11309); details: protein PIM1; average of three replicates
T5 construct: Recombinant protein kinase domains with a concentration of 2 μM
T5 sequence (P11309 whole entry, the tested form may be a part): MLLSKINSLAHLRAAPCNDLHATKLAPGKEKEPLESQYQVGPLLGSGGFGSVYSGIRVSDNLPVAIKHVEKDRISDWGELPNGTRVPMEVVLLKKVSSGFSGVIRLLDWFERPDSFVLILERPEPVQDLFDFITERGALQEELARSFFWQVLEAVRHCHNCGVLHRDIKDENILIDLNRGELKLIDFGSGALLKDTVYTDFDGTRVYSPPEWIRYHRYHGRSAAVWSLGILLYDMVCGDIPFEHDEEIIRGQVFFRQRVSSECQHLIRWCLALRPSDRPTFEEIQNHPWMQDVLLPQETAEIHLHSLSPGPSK
Method in brief: as §1

[6] = molecular target: T6, ~100 representative kinases (Homo sapiens, UniProt P16083); details: protein NQO2; average of three replicates
T6 construct: Recombinant protein kinase domains with a concentration of 2 μM
T6 sequence (P16083 1-231): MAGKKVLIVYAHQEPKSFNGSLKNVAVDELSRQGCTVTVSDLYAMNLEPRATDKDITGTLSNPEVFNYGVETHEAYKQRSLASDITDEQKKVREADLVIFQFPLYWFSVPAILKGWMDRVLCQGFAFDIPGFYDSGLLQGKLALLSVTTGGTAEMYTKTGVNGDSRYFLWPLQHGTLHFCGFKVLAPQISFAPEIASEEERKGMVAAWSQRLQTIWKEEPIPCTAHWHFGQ
Method in brief: as §1

[7] = molecular target: T7, ~100 representative kinases (Homo sapiens, UniProt P17948); details: protein FLT1; average of three replicates
T7 construct: Recombinant protein kinase domains with a concentration of 2 μM
T7 sequence (P17948 27-1338): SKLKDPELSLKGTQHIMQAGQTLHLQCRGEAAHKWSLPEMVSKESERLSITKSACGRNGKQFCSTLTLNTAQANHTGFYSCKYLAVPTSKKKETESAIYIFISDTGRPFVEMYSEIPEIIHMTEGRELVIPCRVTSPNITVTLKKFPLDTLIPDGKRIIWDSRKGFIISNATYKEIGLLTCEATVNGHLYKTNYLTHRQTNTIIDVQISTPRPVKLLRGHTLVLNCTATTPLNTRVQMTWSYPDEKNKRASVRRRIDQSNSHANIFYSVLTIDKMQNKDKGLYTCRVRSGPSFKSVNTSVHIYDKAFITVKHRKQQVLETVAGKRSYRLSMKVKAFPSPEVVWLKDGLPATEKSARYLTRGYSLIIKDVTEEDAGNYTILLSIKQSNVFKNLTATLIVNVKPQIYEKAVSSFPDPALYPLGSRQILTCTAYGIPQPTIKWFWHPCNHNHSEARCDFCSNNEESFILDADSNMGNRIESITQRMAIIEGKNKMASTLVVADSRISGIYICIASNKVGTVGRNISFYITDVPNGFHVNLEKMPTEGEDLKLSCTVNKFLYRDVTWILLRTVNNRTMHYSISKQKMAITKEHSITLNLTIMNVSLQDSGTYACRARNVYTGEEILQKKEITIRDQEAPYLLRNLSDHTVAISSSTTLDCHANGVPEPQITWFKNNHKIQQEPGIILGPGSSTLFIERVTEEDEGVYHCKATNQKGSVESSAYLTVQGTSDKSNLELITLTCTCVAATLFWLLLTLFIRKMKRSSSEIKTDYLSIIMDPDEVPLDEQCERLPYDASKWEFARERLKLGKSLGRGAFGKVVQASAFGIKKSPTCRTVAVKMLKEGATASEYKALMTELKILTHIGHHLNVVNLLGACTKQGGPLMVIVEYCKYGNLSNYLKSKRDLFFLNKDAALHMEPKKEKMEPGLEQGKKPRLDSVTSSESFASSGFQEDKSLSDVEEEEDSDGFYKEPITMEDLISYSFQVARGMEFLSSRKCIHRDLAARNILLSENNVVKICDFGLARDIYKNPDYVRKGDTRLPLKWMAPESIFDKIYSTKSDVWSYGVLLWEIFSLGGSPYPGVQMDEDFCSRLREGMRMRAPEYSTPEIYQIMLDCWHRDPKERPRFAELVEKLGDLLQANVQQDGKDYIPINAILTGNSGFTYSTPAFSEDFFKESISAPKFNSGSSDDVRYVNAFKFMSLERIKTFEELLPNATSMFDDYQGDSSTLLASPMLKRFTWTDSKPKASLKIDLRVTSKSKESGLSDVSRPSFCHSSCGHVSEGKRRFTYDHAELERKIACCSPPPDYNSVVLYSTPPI
Method in brief: as §1

[8] = molecular target: T8, ~100 representative kinases (Homo sapiens, UniProt P19784); details: Protein CK2A2; average of three replicates
T8 construct: Recombinant protein kinase domains with a concentration of 2 μM
T8 sequence (P19784 whole entry, the tested form may be a part): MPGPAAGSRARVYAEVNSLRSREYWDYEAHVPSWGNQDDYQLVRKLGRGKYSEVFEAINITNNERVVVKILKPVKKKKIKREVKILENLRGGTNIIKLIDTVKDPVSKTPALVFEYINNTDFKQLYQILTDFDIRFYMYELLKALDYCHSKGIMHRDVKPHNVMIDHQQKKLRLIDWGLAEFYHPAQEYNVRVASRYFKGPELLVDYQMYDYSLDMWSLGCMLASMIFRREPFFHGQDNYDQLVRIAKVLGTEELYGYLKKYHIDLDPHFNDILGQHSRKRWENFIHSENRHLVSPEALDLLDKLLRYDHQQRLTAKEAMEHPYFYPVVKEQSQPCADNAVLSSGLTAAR
Method in brief: as §1

[9] = molecular target: T9, ~100 representative kinases (Homo sapiens, UniProt P49137); details: protein MAPKAPK2; average of three replicates
T9 construct: Recombinant protein kinase domains with a concentration of 2 μM
Method in brief: as §1

[10] = molecular target: T10, ~100 representative kinases (Homo sapiens, UniProt P54756); details: Protein EPHA5; average of three replicates
T10 construct: Recombinant protein kinase domains with a concentration of 2 μM
Method in brief: as §1

[11] = molecular target: T11, ~100 representative kinases (Homo sapiens, UniProt Q09013); details: Protein DMPK1; average of three replicates
T11 construct: Recombinant protein kinase domains with a concentration of 2 μM
T11 sequence (Q09013 1-629): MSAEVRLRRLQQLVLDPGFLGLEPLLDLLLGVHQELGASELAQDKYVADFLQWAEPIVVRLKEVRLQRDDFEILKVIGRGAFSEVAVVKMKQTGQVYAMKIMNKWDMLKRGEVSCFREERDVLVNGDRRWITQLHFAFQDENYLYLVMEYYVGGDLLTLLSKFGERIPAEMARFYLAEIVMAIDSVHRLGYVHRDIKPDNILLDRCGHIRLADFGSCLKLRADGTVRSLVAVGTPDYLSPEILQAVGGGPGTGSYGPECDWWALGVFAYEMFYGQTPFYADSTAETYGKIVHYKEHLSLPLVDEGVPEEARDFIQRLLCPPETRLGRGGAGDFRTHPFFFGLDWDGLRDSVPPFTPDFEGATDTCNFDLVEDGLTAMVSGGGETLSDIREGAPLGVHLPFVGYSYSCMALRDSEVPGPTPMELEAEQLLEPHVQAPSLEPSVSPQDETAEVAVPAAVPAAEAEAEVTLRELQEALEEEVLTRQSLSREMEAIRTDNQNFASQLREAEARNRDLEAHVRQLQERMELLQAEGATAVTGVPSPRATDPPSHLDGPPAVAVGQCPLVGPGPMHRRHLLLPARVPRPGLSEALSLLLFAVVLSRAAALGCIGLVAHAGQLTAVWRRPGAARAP
Method in brief: as §1

[12] = molecular target: T12, ~100 representative kinases (Homo sapiens, UniProt Q13627); details: Protein DYRK1A; average of three replicates
T12 construct: Recombinant protein kinase domains with a concentration of 2 μM
Method in brief: as §1

[13] = molecular target: T13, ~100 representative kinases (Homo sapiens, UniProt Q16566); details: Protein CAMK4; average of three replicates
T13 construct: Recombinant protein kinase domains with a concentration of 2 μM
T13 sequence (Q16566 1-473): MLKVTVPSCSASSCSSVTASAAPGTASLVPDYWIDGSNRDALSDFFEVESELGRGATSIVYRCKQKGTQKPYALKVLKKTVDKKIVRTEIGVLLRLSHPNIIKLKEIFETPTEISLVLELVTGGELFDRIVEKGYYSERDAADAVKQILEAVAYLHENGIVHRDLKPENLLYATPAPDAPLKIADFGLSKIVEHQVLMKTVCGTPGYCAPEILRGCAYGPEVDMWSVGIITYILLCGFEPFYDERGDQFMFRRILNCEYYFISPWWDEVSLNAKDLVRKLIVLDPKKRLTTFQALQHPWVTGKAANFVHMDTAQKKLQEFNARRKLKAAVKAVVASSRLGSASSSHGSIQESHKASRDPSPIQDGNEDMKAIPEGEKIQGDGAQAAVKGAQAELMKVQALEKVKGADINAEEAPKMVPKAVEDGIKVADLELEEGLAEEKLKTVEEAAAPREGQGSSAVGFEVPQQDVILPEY
Method in brief: as §1

[14] = molecular target: T14, ~100 representative kinases (Homo sapiens, UniProt Q9H2G2); details: Protein SLK; DSF; average of three replicates
T14 construct: Recombinant protein kinase domains with a concentration of 2 μM
T14 sequence (Q9H2G2 whole entry, the tested form may be a part): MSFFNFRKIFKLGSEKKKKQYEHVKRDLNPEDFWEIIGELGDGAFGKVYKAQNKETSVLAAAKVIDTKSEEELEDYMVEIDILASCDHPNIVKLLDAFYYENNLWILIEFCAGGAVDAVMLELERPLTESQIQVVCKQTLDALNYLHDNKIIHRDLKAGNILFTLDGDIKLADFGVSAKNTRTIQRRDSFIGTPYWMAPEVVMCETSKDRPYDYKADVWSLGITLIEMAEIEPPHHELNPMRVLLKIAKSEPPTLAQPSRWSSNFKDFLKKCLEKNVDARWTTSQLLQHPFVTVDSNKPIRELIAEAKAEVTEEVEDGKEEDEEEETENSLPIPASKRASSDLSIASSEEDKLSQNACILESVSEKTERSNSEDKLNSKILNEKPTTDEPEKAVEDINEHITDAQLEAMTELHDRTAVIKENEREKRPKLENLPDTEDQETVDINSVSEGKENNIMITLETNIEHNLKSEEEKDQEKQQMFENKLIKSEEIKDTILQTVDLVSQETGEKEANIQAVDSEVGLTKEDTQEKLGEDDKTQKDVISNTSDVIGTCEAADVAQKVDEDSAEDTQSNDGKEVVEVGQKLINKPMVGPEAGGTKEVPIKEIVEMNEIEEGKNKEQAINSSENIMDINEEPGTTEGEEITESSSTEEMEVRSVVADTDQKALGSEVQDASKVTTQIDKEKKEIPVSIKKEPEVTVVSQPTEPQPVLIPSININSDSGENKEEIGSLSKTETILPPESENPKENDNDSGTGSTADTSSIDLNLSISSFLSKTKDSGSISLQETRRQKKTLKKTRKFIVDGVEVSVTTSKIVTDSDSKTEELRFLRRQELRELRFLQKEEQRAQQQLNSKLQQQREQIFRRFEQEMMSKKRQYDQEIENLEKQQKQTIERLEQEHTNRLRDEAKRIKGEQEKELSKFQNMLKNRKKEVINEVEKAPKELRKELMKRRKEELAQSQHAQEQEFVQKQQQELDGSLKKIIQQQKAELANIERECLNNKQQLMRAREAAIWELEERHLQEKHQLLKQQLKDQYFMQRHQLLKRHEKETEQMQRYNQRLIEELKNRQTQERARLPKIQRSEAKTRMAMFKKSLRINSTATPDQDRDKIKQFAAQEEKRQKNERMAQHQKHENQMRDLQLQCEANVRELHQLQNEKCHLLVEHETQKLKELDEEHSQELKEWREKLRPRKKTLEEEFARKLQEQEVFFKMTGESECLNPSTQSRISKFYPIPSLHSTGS
Method in brief: as §1

[15] = molecular target: T15, ~100 representative kinases (Homo sapiens, UniProt Q9Y2H1); details: Protein STK38L; DSF; average of three replicates
T15 construct: Recombinant protein kinase domains with a concentration of 2 μM
T15 sequence (Q9Y2H1 whole entry, the tested form may be a part): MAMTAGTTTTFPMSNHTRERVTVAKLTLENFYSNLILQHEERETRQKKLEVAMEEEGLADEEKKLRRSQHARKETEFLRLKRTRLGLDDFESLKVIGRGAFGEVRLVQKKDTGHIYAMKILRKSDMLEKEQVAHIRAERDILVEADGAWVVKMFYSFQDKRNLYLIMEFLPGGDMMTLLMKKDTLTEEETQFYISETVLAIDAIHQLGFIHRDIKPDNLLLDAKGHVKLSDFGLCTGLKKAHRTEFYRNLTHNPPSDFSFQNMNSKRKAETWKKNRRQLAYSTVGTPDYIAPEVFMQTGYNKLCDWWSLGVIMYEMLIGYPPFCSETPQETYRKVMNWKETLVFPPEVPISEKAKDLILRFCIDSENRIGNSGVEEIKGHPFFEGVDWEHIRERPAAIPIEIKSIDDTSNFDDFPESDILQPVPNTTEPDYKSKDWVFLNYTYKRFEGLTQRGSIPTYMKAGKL
Method in brief: as §1

T1 sequence (O43293 whole entry, the tested form may be a part): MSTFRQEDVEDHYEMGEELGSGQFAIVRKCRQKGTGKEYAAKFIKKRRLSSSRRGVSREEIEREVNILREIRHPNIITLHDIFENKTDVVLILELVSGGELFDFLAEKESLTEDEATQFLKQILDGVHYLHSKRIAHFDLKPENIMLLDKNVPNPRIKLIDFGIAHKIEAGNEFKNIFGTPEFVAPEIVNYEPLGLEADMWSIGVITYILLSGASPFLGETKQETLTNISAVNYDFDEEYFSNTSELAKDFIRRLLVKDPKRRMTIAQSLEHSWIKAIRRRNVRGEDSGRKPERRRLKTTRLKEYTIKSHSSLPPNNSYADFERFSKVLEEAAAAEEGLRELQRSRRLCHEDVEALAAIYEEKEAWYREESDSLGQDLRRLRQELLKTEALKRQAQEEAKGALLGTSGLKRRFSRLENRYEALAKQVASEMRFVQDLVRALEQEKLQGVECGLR

Work on `COc1cc(C(=O)N2CCOCC2)c(F)cc1Nc1nc(N(C)C)c2c(Cl)c[nH]c2n1` [Compound 36] yielded a dTm [1] of 6.29 K, a dTm [2] of 1.88 K and a dTm [3] of 13.85 K. It also gave a dTm [4] of 1.16 K, a dTm [5] of -0.51 K and a dTm [6] of -0.44 K. For the same molecule, the dTm [7] was 0.33 K, the dTm [8] was 1.00 K and the dTm [9] was 2.68 K. The dTm [10] was -0.96 K, the dTm [11] was 0.30 K and the dTm [12] was 3.71 K. The dTm [13] was 1.63 K, the dTm [14] was -1.49 K and the dTm [15] was -1.36 K.
